This experiment concerns the target T1, F508delCFTR (Homo sapiens, UniProt P13569, DEL508-508).
T1 construct: expressed in transfected cells; host or cells: CFBE41o- human lung-derived epithelial cells (CFBE4lo-F508delCFTR-HRP), doxycycline-inducible
The experiment can be described thus: Cell Surface Expression-Horse Radish Peroxidase (CSE-HRP) Assay.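 As to Maximum % activity (with co-corrector): co-corrector and positive control are both the same reference corrector at 2 µM.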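 As to Maximum % activity (without co-corrector): percent of the 2 µM on-plate positive control corrector response above DMSO.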 In kind it is cell-based. The following applies: for Maximum % activity (with co-corrector) / Maximum % activity (without co-corrector) / Emax: maximum at any tested concentration, normalized to on-plate positive control; for Emax: read-out: Maximum % activity (without co-corrector).

Setting [1] is: test compound without co-corrector, read-out: EC50 (without co-corrector).
Setting [2] is: with co-corrector (2 μM of 3-[(2R,4R)-4-({[1-(2,2-difluoro-1,3-benzodioxol-5-yl)cyclopropyl]carbonyl}amino)-7-methoxy-3,4-dihydro-2H-chromen-2-yl]benzoic acid), read-out: EC50 (with co-corrector).
[3] abbreviates: CSE-HRP, test compound without co-corrector, read-out: EC50 (without co-corrector).
Setting [4] is: CSE-HRP, with co-corrector (2 μM of 3-[(2R,4R)-4-({[1-(2,2-difluoro-1,3-benzodioxol-5-yl)cyclopropyl]carbonyl}amino)-7-methoxy-3,4-dihydro-2H-chromen-2-yl]benzoic acid), read-out: EC50 (with co-corrector).
[5] abbreviates: CSE-HRP, with co-corrector (2 μM).
[6] abbreviates: CSE-HRP, with co-corrector (2 μM), 2 µM.
The mark [7] stands for this setting: test compound without co-corrector.
Where [8] appears, read: with co-corrector (2 μM of 3-[(2R,4R)-4-({[1-(2,2-difluoro-1,3-benzodioxol-5-yl)cyclopropyl]carbonyl}amino)-7-methoxy-3,4-dihydro-2H-chromen-2-yl]benzoic acid).
[9] abbreviates: with co-corrector (2 μM of 3-[(2R,4R)-4-({[1-(2,2-difluoro-1,3-benzodioxol-5-yl)cyclopropyl]carbonyl}amino)-7-methoxy-3,4-dihydro-2H-chromen-2-yl]benzoic acid), 2 µM.

Read-outs that look alike come from different tables or passages of the source.

T1 sequence (P13569 with tags, fused parts or gaps DEL508-508): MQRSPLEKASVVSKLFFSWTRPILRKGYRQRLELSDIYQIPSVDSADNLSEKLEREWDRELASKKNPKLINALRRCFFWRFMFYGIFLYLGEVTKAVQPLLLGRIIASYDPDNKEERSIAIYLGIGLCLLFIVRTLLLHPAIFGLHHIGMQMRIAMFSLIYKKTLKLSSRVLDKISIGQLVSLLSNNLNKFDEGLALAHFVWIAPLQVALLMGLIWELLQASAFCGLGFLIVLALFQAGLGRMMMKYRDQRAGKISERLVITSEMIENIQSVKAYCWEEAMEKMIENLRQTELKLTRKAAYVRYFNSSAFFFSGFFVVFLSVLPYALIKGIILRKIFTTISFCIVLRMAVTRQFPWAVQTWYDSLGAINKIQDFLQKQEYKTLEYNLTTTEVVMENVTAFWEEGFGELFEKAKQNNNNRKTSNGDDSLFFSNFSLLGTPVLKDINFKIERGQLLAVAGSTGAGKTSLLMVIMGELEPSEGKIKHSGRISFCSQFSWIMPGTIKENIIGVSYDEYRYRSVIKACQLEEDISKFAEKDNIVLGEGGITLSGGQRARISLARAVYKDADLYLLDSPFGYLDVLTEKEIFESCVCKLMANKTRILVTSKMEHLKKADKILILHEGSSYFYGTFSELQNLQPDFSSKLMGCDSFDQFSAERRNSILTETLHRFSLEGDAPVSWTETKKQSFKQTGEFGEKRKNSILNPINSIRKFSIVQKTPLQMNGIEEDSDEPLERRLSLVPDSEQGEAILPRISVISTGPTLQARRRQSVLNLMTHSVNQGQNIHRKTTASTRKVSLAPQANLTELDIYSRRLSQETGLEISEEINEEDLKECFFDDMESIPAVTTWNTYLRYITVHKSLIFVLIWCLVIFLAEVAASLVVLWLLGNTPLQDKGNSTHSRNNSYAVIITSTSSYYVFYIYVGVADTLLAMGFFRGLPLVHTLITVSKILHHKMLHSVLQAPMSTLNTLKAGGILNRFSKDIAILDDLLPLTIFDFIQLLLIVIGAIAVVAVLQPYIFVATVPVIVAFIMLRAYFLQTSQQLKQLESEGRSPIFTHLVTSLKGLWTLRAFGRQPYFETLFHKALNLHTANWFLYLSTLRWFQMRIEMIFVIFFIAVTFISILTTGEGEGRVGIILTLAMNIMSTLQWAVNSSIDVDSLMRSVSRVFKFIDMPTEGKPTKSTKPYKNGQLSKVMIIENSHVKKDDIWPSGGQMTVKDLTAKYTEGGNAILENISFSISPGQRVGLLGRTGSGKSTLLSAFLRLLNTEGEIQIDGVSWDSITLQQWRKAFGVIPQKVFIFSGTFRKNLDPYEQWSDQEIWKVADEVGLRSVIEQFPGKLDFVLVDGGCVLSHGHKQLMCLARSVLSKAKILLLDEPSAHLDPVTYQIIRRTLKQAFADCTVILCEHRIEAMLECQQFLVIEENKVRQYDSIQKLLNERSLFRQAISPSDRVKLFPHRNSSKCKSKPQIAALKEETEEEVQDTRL

For orientation: EC50 means the concentration giving half of the maximal effect. `COc1ccc(C(C)(C)C)cc1CN[C@H]1[C@H](C(C)(C)C)[C@@H](C(=O)O)N(C(=O)C2Cc3ccccc3O2)[C@H]1c1cccnc1OC` (single isomer, unassigned) [Example I-166]: the 50% effective concentration (EC50) is 1000 to 10000 nM under setting [1] and less than 1000 nM under setting [2]. In addition, under “with co-corrector (2 μM)”, the “Maximum % activity (with co-corrector)” value is “+++ (≥350)”. Also, for the setting “without co-corrector”, the “Maximum % activity (without co-corrector)” value is on record as “+ (<100)”.
In the case of `COc1ccc(C2(C(F)(F)F)CC2)cc1CN[C@H]1[C@H](C(C)(C)C)[C@@H](C(=O)O)N(C(=O)C2Cc3ccccc3O2)[C@H]1c1cccnc1N(C)C` (single isomer, unassigned) [Example I-175], the EC50 is less than 1000 nM under setting [1] and less than 1000 nM under setting [2]. Further, the “Maximum % activity (with co-corrector)” value (with co-corrector (2 μM), 2 µM) is given as “+++ (≥350)”. Besides, the Emax (without co-corrector) was less than 100%.
Take `COc1nc(C(C)(C)C)ccc1CN[C@H]1[C@H](C(C)(C)C)[C@@H](C(=O)O)N(C(=O)C2Cc3ccccc3O2)[C@H]1c1ccccc1` (single isomer, unassigned) [Example I-181]: the EC50 was less than 1000 nM under setting [1] and less than 1000 nM under setting [2]. Also, the “Maximum % activity (with co-corrector)” value (with co-corrector (2 μM)) is “+++ (≥350)”. Where the note is “without co-corrector”, the Emax was less than 100%.
As to `COc1ccc(C(C)(C)C)cc1CN[C@H]1[C@H](C(C)(C)C)[C@@H](C(=O)O)N(C(=O)C2CCCN(C)C2=O)[C@H]1c1ccccc1` (single isomer, unassigned) [Example I-191], the concentration for a half-maximal effect (EC50) was 1000 to 10000 nM under setting [1] and 1000 to 10000 nM under setting [2]. Besides, under “with co-corrector (2 μM)”, the “Maximum % activity (with co-corrector)” value is reported as “+++ (≥350)”. In addition, the Emax (without co-corrector) is greater than 200%.
As for `COc1cc(C(F)(F)F)ccc1CN[C@@H]1[C@@H](C(C)(C)C)[C@H](C(=O)O)N(C(=O)C(C)Oc2ccccc2)[C@@H]1c1ccccc1` (single isomer, unassigned) [II-58], the EC50 reads like this: under setting [3], 1000 to 10000 nM; under setting [4], 1000 to 10000 nM. The “Maximum % activity (with co-corrector)” value under setting [5] is “++ (≥150 and <350)”. For the same compound, the Emax (CSE-HRP, without co-corrector) was less than 100%.
For the compound `COc1cc(C(F)(F)F)ccc1CN[C@@H]1[C@@H](C(C)(C)C)[C@H](C(=O)O)N(C(=O)C(C)Oc2ccccc2)[C@@H]1c1ccccc1` (single isomer, unassigned) [II-67], under setting [3], the EC50 lay within 1000 to 10000 nM. Further, the “Maximum % activity (with co-corrector)” value under setting [5] is “++ (≥150 and <350)”.
Consider `COc1cc(C(F)(F)F)ccc1CN[C@@H]1[C@@H](C(C)(C)C)[C@H](C(=O)O)N(C(=O)C(C)c2ccccc2)[C@@H]1c1ccccc1` (single isomer, unassigned) [II-80], for which the EC50 by setting is: under setting [3], 1000 to 10000 nM; under setting [4], 1000 to 10000 nM. The “Maximum % activity (with co-corrector)” value under setting [5] is listed as “+++ (≥350)”. Further, the Emax (CSE-HRP, without co-corrector) lay within 100 to 200%.
Turning to `COc1ccc(C(C)(C)C)cc1CN[C@H]1[C@H](C(C)(C)C)[C@@H](C(=O)O)N(C(=O)C2CCc3ccccc3O2)[C@H]1c1ccccc1` (single isomer, unassigned) [II-164], the concentration giving a half-maximal response (EC50) was less than 1000 nM under setting [3] and less than 1000 nM under setting [4]. For the same compound, the “Maximum % activity (with co-corrector)” value under setting [5] was “+++ (≥350)”. For the same compound, the Emax (CSE-HRP, without co-corrector) was greater than 200%.
For `COc1ccc(C(C)(C)C)cc1CN[C@H]1[C@H](C(C)(C)C)[C@@H](C(=O)O)N(C(=O)C(C)n2cc(Cl)c(C)n2)[C@H]1c1ccccc1` (single isomer, unassigned) [II-237], the EC50 under setting [3] fell in the range of 1000 to 10000 nM and the EC50 under setting [4] was in the range of 1000 to 10000 nM. Besides, the “Maximum % activity (with co-corrector)” value under setting [5] is on record as “+++ (≥350)”. The “Maximum % activity (without co-corrector)” value (CSE-HRP, without co-corrector) was “+ (<100)”.
Take `COc1ccc(C(F)(F)F)cc1CN[C@H]1[C@H](C(C)(C)C)[C@@H](C(=O)O)N(C(=O)C2Cc3ccccc3O2)[C@H]1c1ccccc1` (single isomer, unassigned) [II-265]: the 50% effective concentration (EC50) by setting is: under setting [3], 1000 to 10000 nM; under setting [4], 1000 to 10000 nM. Further, the “Maximum % activity (with co-corrector)” value under setting [6] is “++ (≥150 and <350)”. In addition, the Emax (CSE-HRP, without co-corrector) was less than 100%.
As for `COc1ccc(C(F)(F)F)cc1CN[C@H]1[C@H](C(C)(C)C)[C@@H](C(=O)O)N(C(=O)C2Cc3ccccc3O2)[C@H]1c1ccccc1` (single isomer, unassigned) [II-266], the EC50 runs as follows: under setting [3], 1000 to 10000 nM; under setting [4], less than 1000 nM. In addition, the “Maximum % activity (with co-corrector)” value under setting [6] is “+++ (≥350)”. For the setting “CSE-HRP, without co-corrector”, the “Maximum % activity (without co-corrector)” value was “++ (≥100 and <200)”.
As for `COc1ccc(C(C)(C)C)cc1CN[C@H]1[C@H](C(C)(C)C)[C@@H](C(=O)O)N(C(=O)C(OC)c2cccc(Cl)c2)[C@H]1c1ccccc1` (single isomer, unassigned) [II-270], the EC50 reads like this: under setting [3], less than 1000 nM; under setting [4], less than 1000 nM. Moreover, the “Maximum % activity (with co-corrector)” value under setting [5] is given as “+++ (≥350)”. Moreover, the Emax (CSE-HRP, without co-corrector) was greater than 200%.
`COc1ccc(C(C)(C)C)cc1CN[C@H]1[C@H](C(C)(C)C)[C@@H](C(=O)O)N(C(=O)C(OC)c2cccc(Cl)c2)[C@H]1c1ccccc1` (single isomer, unassigned) [II-271]: the EC50 is, setting by setting: under setting [3], 1000 to 10000 nM; under setting [4], less than 1000 nM. The “Maximum % activity (with co-corrector)” value under setting [5] was “+++ (≥350)”. The “Maximum % activity (without co-corrector)” value (CSE-HRP, without co-corrector) was “+++ (≥200)”.
`COc1ccc(C(C)(C)C)cc1CN[C@H]1[C@H](C(C)(C)C)[C@@H](C(=O)O)N(C(=O)C2Cc3ccccc3O2)[C@H]1c1ccccc1` (single isomer, unassigned) [II-272]: the EC50 reads like this: under setting [3], 1000 to 10000 nM; under setting [4], 1000 to 10000 nM. For the same compound, the “Maximum % activity (with co-corrector)” value under setting [5] is given as “+++ (≥350)”. Moreover, where the note is “CSE-HRP, without co-corrector”, the Emax was 100 to 200%.
Turning to `COc1ccc(C(C)(C)C)cc1CN[C@H]1[C@H](C(C)(C)C)[C@@H](C(=O)O)N(C(=O)C2Cc3ccccc3O2)[C@H]1c1cccnc1N(C)C` (single isomer, unassigned) [II-421], the Emax under setting [7] is less than 100%. In addition, the half-maximal effective concentration (EC50) under setting [1] fell in the range of 1000 to 10000 nM and the EC50 under setting [2] was 1000 to 10000 nM. Further, the “Maximum % activity (with co-corrector)” value under setting [8] is “++ (≥150 and <350)”.
For the compound `COc1nc(C(C)(C)C)ccc1CN[C@H]1[C@H](C(C)(C)C)[C@@H](C(=O)O)N(C(=O)C2Cc3ccccc3O2)[C@H]1c1ccccc1` (single isomer, unassigned) [II-430], the Emax under setting [7] is less than 100%. Further, the concentration for a half-maximal effect (EC50) under setting [1] was less than 1000 nM. In addition, under setting [8], the “Maximum % activity (with co-corrector)” value is “++ (≥150 and <350)”.
On to `COc1ccc(C(C)(C)C)cc1CN[C@H]1[C@H](C(C)(C)C)[C@@H](C(=O)O)N(C(=O)C2CCc3ccccc3O2)[C@H]1c1cccnc1N(C)C` (single isomer, unassigned) [II-438], for which the Emax under setting [7] is less than 100%. For the same compound, under setting [1], the EC50 lay in the range of 1000 to 10000 nM. In addition, the “Maximum % activity (with co-corrector)” value under setting [8] is “++ (≥150 and <350)”.
For the compound `COc1ccc(C(C)(C)C)cc1CN[C@H]1[C@H](C(C)(C)C)[C@@H](C(=O)O)N(C(=O)C2CCCN(C)C2=O)[C@H]1c1ccccc1` (single isomer, unassigned) [II-444], the Emax under setting [7] was less than 100%. The concentration for a half-maximal effect (EC50) under setting [1] was 1000 to 10000 nM. Besides, under setting [8], the “Maximum % activity (with co-corrector)” value is “++ (≥150 and <350)”.
`COc1ccc(C(C)(C)C)cc1CN[C@H]1[C@H](C(C)(C)C)[C@@H](C(=O)O)N(C(=O)C2CCc3ccc(F)cc3O2)[C@H]1c1cccnc1N(C)C` (single isomer, unassigned) [II-452]: the Emax under setting [7] lay in the range of 100 to 200%. Moreover, the concentration giving a half-maximal response (EC50) is 1000 to 10000 nM under setting [1] and 1000 to 10000 nM under setting [2]. Besides, the “Maximum % activity (with co-corrector)” value under setting [9] was “+++ (≥350)”.
As to `COc1ccc(C(C)(C)C)cc1CN[C@H]1[C@H](C(C)(C)C)[C@@H](C(=O)O)N(C(=O)C2CCc3ccc(F)cc3O2)[C@H]1c1cccnc1N(C)C` (single isomer, unassigned) [II-453], under setting [7], the “Maximum % activity (without co-corrector)” value is on record as “+ (<100)”. In addition, the concentration giving a half-maximal response (EC50) by setting is: under setting [1], greater than 10000 nM; under setting [2], less than 1000 nM. Moreover, the “Maximum % activity (with co-corrector)” value under setting [9] is “++ (≥150 and <350)”.
For `COc1ccc(C(C)(C)C)cc1CN[C@H]1[C@H](C(C)(C)C)[C@@H](C(=O)O)N(C(=O)C2COc3ccccc3O2)[C@H]1c1cccnc1N(C)C` (single isomer, unassigned) [II-471], the Emax under setting [7] was less than 100%. Besides, the EC50 under setting [1] was greater than 10000 nM and the concentration giving a half-maximal response (EC50) under setting [2] was less than 1000 nM. Moreover, the “Maximum % activity (with co-corrector)” value under setting [8] is “++ (≥150 and <350)”.
As to `COc1ccc(C(C)(C)C)cc1CN[C@H]1[C@H](C(C)(C)C)[C@@H](C(=O)O)N(C(=O)C2COc3ccccc3O2)[C@H]1c1cccnc1N(C)C` (single isomer, unassigned) [II-472], the “Maximum % activity (without co-corrector)” value under setting [7] is reported as “+ (<100)”. Moreover, the concentration for a half-maximal effect (EC50) was 1000 to 10000 nM under setting [1] and 1000 to 10000 nM under setting [2]. Further, under setting [8], the “Maximum % activity (with co-corrector)” value is “++ (≥150 and <350)”.

(Values after patent US20180099931A1 (AbbVie S.à.r.l., priority 2016, published 2018).)
